Data from patent US20230248785A1, “METHODS AND COMPOSITIONS FOR TREATING METABOLIC CONDITIONS” (BACTANA CORP., priority 2020, published 2023).

Test system: C57BL/6J mice on high-fat diet (prediabetes)
Experiment: Fasting blood glucose in prediabetic high-fat diet mice treated with FPZ, metformin or the combination (Example 6)
Format: in vivo
Conditions: after 2 weeks of daily oral gavage, 100 mg/kg; control gavaged with water
Procedure: The study uses 29 C57BL/6J mice, which are placed on a high-fat diet and allowed to develop prediabetes. The mice are fasted for 16 h, and the fasting blood glucose levels are measured to be greater than 105 mg/dL. The mice are divided up into control and treatment groups, and they are treated daily for 7 weeks with either 100 mg/kg FPZ, 100 mg/kg metformin, or a combination of FPZ with metformin, given by oral gavage. Fasting blood glucose are recorded at 2, 4, and 7 weeks of treatment.

## CN(C)C(=N)N=C(N)N [metformin]
  reduction in fasting blood glucose level compared to the control group: 24%
